{"source": "ChEMBL document CHEMBL1158728", "about": "“Makaluvic acids from the South African latrunculid sponge Strongylodesma aliwaliensis” (J Nat Prod, 2005)"}
{"experiment": "Cytotoxicity against human WHCO1 cells after 48 hrs by MTT assay", "format": "functional, cell-based", "settings": "WHCO1, 48 h", "units": {"IC50": "µM"}}
{"smiles": "NC1=CC2=NCCc3cn([C@@H]4O[C@H](CO)[C@@H](O)[C@H]4O)c(c32)C1=O", "IC50": 1.6}
{"smiles": "O=C1C=C2NCCc3c[nH]c(c32)C1=O", "note": "[DAMIRONE C]", "IC50": 56}
{"smiles": "O=C1C(N/C=C/c2ccc(O)cc2)=CC2=NCCc3c[nH]c1c32", "note": "[MAKALUVAMINE M]", "IC50": 0.7}
{"smiles": "O=C1C=C2NCCc3cn([C@@H]4O[C@H](CO)[C@@H](O)[C@H]4O)c(c32)C1=O", "IC50": 38}
{"smiles": "O=C1NCCc2cn([C@@H]3O[C@H](CO)[C@@H](O)[C@H]3O)c(C(=O)O)c21", "IC50": 61}
{"smiles": "O=C(O)c1[nH]cc2c1C(=O)NCC2", "note": "[MAKALUVIC ACID C]", "IC50": "> 150"}
